Reference: patent US12077503B2, “Substituted cyclic amides and their use as herbicides” (FMC CORPORATION, priority 2015, dated 2024)

Tests used:
Format in all cases: in vivo
[1] = system: ivy-leaved morning glory (Ipomoea hederacea); assay: Test G Post-Emergence Protocol; conditions: Ipomoea, post-emergence, 312 h; for pest or weed control at 15.625 g/ha: 15.625 g ai/ha, evaluated after 13 days (100=total damage to plant; 0=no damage to plant), read-out: Morningglory, Ivy-leaved damage rating; for pest or weed control at 62.5 g/ha: 62.5 g ai/ha, read-out: Morningglory, Ivy-leaved damage rating (100=total damage to plant; 0=no damage to plant); for pest or weed control at 62.5 g/ha / pest or weed control at 250 g/ha: evaluated after 13 days; for pest or weed control at 250 g/ha: 250 g ai/ha, read-out: damage to plant, Morningglory, Ivy-leaved (100=total damage to plant; 0=no damage to plant)
In short: (§1)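 Eight days post-sowing, plants received a spray of test compound (acetone/water 50:50, 0.5% Tween 20) at 15.625, 62.5 or 250 g/ha. Glasshouse regime thereafter: 24/16 °C, 14 h light, 65% humidity. Assessment after 13 days on a 0–100 damage scale.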

[2] = system: velvetleaf (Abutilon theophrasti); assay: Test G Post-Emergence Protocol; conditions: Abutilon theophrasti, post-emergence, 312 h; for pest or weed control at 15.625 g/ha: 15.625 g ai/ha, evaluated after 13 days (100=total damage to plant; 0=no damage to plant), read-out: Velvetleaf damage rating; for pest or weed control at 62.5 g/ha: 62.5 g ai/ha, read-out: Velvetleaf damage rating (100=total damage to plant; 0=no damage to plant); for pest or weed control at 62.5 g/ha / pest or weed control at 250 g/ha: evaluated after 13 days; for pest or weed control at 250 g/ha: 250 g ai/ha, read-out: damage to plant, Velvetleaf (100=total damage to plant; 0=no damage to plant)
In short: as §1

[3] = system: barnyardgrass (Echinochloa crus-galli); assay: Test G Post-Emergence Protocol; conditions: Echinochloa crus-galli, post-emergence, 312 h; for pest or weed control at 15.625 g/ha: 15.625 g ai/ha, evaluated after 13 days (100=total damage to plant; 0=no damage to plant), read-out: Barnyardgrass damage rating; for pest or weed control at 62.5 g/ha: 62.5 g ai/ha, read-out: Barnyardgrass damage rating (100=total damage to plant; 0=no damage to plant); for pest or weed control at 62.5 g/ha / pest or weed control at 250 g/ha: evaluated after 13 days; for pest or weed control at 250 g/ha: 250 g ai/ha, read-out: damage to plant, Barnyardgrass (100=total damage to plant; 0=no damage to plant)
In short: as §1

[4] = system: redroot pigweed (Amaranthus retroflexus); assay: Test G Post-Emergence Protocol; conditions: Amaranthus retroflexus, post-emergence, 312 h; for pest or weed control at 15.625 g/ha: 15.625 g ai/ha, evaluated after 13 days (100=total damage to plant; 0=no damage to plant), read-out: Pigweed, Redroot damage rating; for pest or weed control at 62.5 g/ha: 62.5 g ai/ha, read-out: Pigweed, Redroot damage rating (100=total damage to plant; 0=no damage to plant); for pest or weed control at 62.5 g/ha / pest or weed control at 250 g/ha: evaluated after 13 days; for pest or weed control at 250 g/ha: 250 g ai/ha, read-out: damage to plant, Pigweed, Redroot (100=total damage to plant; 0=no damage to plant)
In short: as §1

[5] = system: giant foxtail (Setaria faberi); assay: Test G Post-Emergence Protocol; conditions: Setaria faberi, post-emergence, 312 h; for pest or weed control at 15.625 g/ha: 15.625 g ai/ha, evaluated after 13 days (100=total damage to plant; 0=no damage to plant), read-out: Foxtail, Giant damage rating; for pest or weed control at 62.5 g/ha: 62.5 g ai/ha, read-out: Foxtail, Giant damage rating (100=total damage to plant; 0=no damage to plant); for pest or weed control at 62.5 g/ha / pest or weed control at 250 g/ha: evaluated after 13 days; for pest or weed control at 250 g/ha: 250 g ai/ha, read-out: damage to plant, Foxtail, Giant (100=total damage to plant; 0=no damage to plant)
In short: as §1

corn (Zea mays) [6] = assay: Test G Post-Emergence Protocol; conditions: Zea mays, post-emergence, 312 h; for plant injury at 15.625 g/ha: 15.625 g ai/ha, evaluated after 13 days (100=total damage to plant; 0=no damage to plant), read-out: Corn damage rating; for plant injury at 62.5 g/ha: 62.5 g ai/ha, read-out: Corn damage rating (100=total damage to plant; 0=no damage to plant); for plant injury at 62.5 g/ha / plant injury at 250 g/ha: evaluated after 13 days; for plant injury at 250 g/ha: 250 g ai/ha, read-out: damage to plant, Corn (100=total damage to plant; 0=no damage to plant)
In short: as §1

[7] = system: ivy-leaved morning glory (Ipomoea hederacea); assay: Test G Pre-Emergence Protocol; conditions: Ipomoea, pre-emergence, 312 h, evaluated after 13 days; for pest or weed control at 62.5 g/ha: 62.5 g ai/ha, 100=total damage to plant, 0=no damage to plant, read-out: plant damage rating, Morningglory, Ivy-leaved; for pest or weed control at 250 g/ha: 250 g ai/ha, read-out: Morningglory, Ivy-leaved damage rating (100=total damage to plant; 0=no damage to plant)
In short: (§2)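 Pre-emergence spray, 15.625/62.5/250 g/ha, vehicle acetone:water 50:50 + 0.5% Tween 20, applied 1 d after sowing. Glasshouse 24/16° C, 14 h light, 65% RH, watered twice daily. Visual damage rating at 13 d, 0–100 scale.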

[8] = system: velvetleaf (Abutilon theophrasti); assay: Test G Pre-Emergence Protocol; conditions: Abutilon theophrasti, pre-emergence, 312 h, evaluated after 13 days; for pest or weed control at 15.625 g/ha: 15.625 g ai/ha; for pest or weed control at 15.625 g/ha / pest or weed control at 250 g/ha: read-out: Velvetleaf damage rating (100=total damage to plant; 0=no damage to plant); for pest or weed control at 62.5 g/ha: 62.5 g ai/ha, 100=total damage to plant, 0=no damage to plant, read-out: plant damage rating, Velvetleaf; for pest or weed control at 250 g/ha: 250 g ai/ha
In short: as §2

[9] = system: barnyardgrass (Echinochloa crus-galli); assay: Test G Pre-Emergence Protocol; conditions: Echinochloa crus-galli, pre-emergence, 312 h, evaluated after 13 days; for pest or weed control at 15.625 g/ha: 15.625 g ai/ha, read-out: Barnyard grass damage rating (100=total damage to plant; 0=no damage to plant); for pest or weed control at 62.5 g/ha: 62.5 g ai/ha, 100=total damage to plant, 0=no damage to plant, read-out: plant damage rating, Barnyardgrass; for pest or weed control at 250 g/ha: 250 g ai/ha, read-out: Barnyardgrass damage rating (100=total damage to plant; 0=no damage to plant)
In short: as §2

[10] = system: redroot pigweed (Amaranthus retroflexus); assay: Test G Pre-Emergence Protocol; conditions: Amaranthus retroflexus, pre-emergence, 312 h, evaluated after 13 days; for pest or weed control at 15.625 g/ha: 15.625 g ai/ha; for pest or weed control at 15.625 g/ha / pest or weed control at 250 g/ha: read-out: Pigweed, Redroot damage rating (100=total damage to plant; 0=no damage to plant); for pest or weed control at 62.5 g/ha: 62.5 g ai/ha, 100=total damage to plant, 0=no damage to plant, read-out: plant damage rating, Pigweed, Redroot; for pest or weed control at 250 g/ha: 250 g ai/ha
In short: as §2

[11] = system: giant foxtail (Setaria faberi); assay: Test G Pre-Emergence Protocol; conditions: Setaria faberi, pre-emergence, 312 h, evaluated after 13 days; for pest or weed control at 15.625 g/ha: 15.625 g ai/ha; for pest or weed control at 15.625 g/ha / pest or weed control at 250 g/ha: read-out: Foxtail, Giant damage rating (100=total damage to plant; 0=no damage to plant); for pest or weed control at 62.5 g/ha: 62.5 g ai/ha, 100=total damage to plant, 0=no damage to plant, read-out: plant damage rating, Foxtail, Giant; for pest or weed control at 250 g/ha: 250 g ai/ha
In short: as §2

corn (Zea mays) [12] = assay: Test G Pre-Emergence Protocol; conditions: Zea mays, pre-emergence, 312 h, evaluated after 13 days; for plant injury at 15.625 g/ha: 15.625 g ai/ha; for plant injury at 15.625 g/ha / plant injury at 250 g/ha: read-out: Corn damage rating (100=total damage to plant; 0=no damage to plant); for plant injury at 62.5 g/ha: 62.5 g ai/ha, 100=total damage to plant, 0=no damage to plant, read-out: plant damage rating, Corn; for plant injury at 250 g/ha: 250 g ai/ha
In short: as §2

Structure (SMILES) | pest or weed control at 15.625 g/ha [1] [%] | pest or weed control at 62.5 g/ha [1] [%] | pest or weed control at 250 g/ha [1] [%] | pest or weed control at 15.625 g/ha [2] [%] | pest or weed control at 62.5 g/ha [2] [%] | pest or weed control at 250 g/ha [2] [%] | pest or weed control at 15.625 g/ha [3] [%] | pest or weed control at 62.5 g/ha [3] [%] | pest or weed control at 250 g/ha [3] [%] | pest or weed control at 15.625 g/ha [4] [%] | pest or weed control at 62.5 g/ha [4] [%] | pest or weed control at 250 g/ha [4] [%] | pest or weed control at 15.625 g/ha [5] [%] | pest or weed control at 62.5 g/ha [5] [%] | pest or weed control at 250 g/ha [5] [%] | plant injury at 15.625 g/ha (corn (Zea mays) [6]) [%] | plant injury at 62.5 g/ha (corn (Zea mays) [6]) [%] | plant injury at 250 g/ha (corn (Zea mays) [6]) [%] | pest or weed control at 62.5 g/ha [7] [%] | pest or weed control at 250 g/ha [7] [%] | also measured
CCOC(=O)c1cccc([C@H]2CN(C)C(=O)[C@@H]2C(=O)Nc2ccccc2F)c1 (racemic) [Compound 1438] | 0 | 0 | 0 | 0 | 0 | 0 | 0 | 0 | 0 | 0 | 0 | 10 | 0 | 0 | 0 | 0 | 0 | 0 | 0 | 0 | pest or weed control at 15.625 g/ha ([7]; 15.625 g ai/ha, read-out: Morning-glory, Ivy-leaved damage rating (100=total damage to plant; 0=no damage to plant)): 0%; pest or weed control at 15.625 g/ha [8]: 0%; pest or weed control at 62.5 g/ha [8]: 0%; pest or weed control at 250 g/ha [8]: 0%; pest or weed control at 15.625 g/ha [9]: 0%; pest or weed control at 62.5 g/ha [9]: 0%; pest or weed control at 250 g/ha [9]: 0%; pest or weed control at 15.625 g/ha [10]: 0%; pest or weed control at 62.5 g/ha [10]: 0%; pest or weed control at 250 g/ha [10]: 0%; pest or weed control at 15.625 g/ha [11]: 0%; pest or weed control at 62.5 g/ha [11]: 0%; pest or weed control at 250 g/ha [11]: 20%; plant injury at 15.625 g/ha (corn (Zea mays) [12]): 0%; plant injury at 62.5 g/ha (corn (Zea mays) [12]): 0%; plant injury at 250 g/ha (corn (Zea mays) [12]): 0%
CN1C[C@@H](c2ccc(C(F)(F)F)cc2)[C@H](C(=O)Nc2ccc(Cl)nn2)C1=O (racemic) [Compound 1561] | 0 | 10 | 60 | 0 | 40 | 20 | 0 | 20 | 50 | 0 | 20 | 30 | 0 | 10 | 60 | 0 | 0 | 50 | 0 | 20 | pest or weed control at 15.625 g/ha [8]: 0%; pest or weed control at 62.5 g/ha [8]: 0%; pest or weed control at 250 g/ha [8]: 10%; pest or weed control at 15.625 g/ha [9]: 30%; pest or weed control at 62.5 g/ha [9]: 50%; pest or weed control at 250 g/ha [9]: 80%; pest or weed control at 15.625 g/ha [10]: 0%; pest or weed control at 62.5 g/ha [10]: 20%; pest or weed control at 250 g/ha [10]: 30%; pest or weed control at 15.625 g/ha [11]: 30%; pest or weed control at 62.5 g/ha [11]: 60%; pest or weed control at 250 g/ha [11]: 70%; plant injury at 15.625 g/ha (corn (Zea mays) [12]): 10%; plant injury at 62.5 g/ha (corn (Zea mays) [12]): 0%; plant injury at 250 g/ha (corn (Zea mays) [12]): 20%
